US10815246B2, “Thailanstatin analogs” (priority 2017, dated 2020)
pIC50: −log10 of the molar value. Where two headings read alike, the source gives them in different places.

Assays:
Type in all cases: cell-based
[1] = tested on: A549; test: In vitro cytotoxicity of toxin compounds, CellTiter-Glo, three days (Example 12); conditions: Homo sapiens, 72 h
Protocol: (§1) Various cancer cell lines were obtained from the American Type Culture Collection (ATCC®). The cells were cultured in a humidified 5% CO2 incubator in a media consisting of RPMI 1640, L-glutamine, and 10% FBS. The cells were passaged as needed using standard tissue culture techniques. The cells were harvested and plated out into 96-well tissue culture treated plates at a density of 5000 cells per well. After allowing the cells to equilibrate for ˜24 hr in a humidified 5% CO2 incubator, the cells were treated with the test compounds at the indicated concentrations. The cells were exposed to the test compounds for three days with no media change. After the treatment period, CellTiter-Glo® Luminescent Cell Viability Assay reagent solution (Promega, Inc., Madison, Wis.; Cat. # G7573) was introduced to each well. The Cell TiterGlo-containing plates were then read on a SpectroMax® iD3 Multi-Mode Microplate reader (Molecular Devices, LLC, San Jose, Calif.). The degree of luminescence was dictated by the abundance of live cells.
(§2) The following tables summarize the cytotoxicity (IC50), nM, observed for the specified toxin compounds on the indicated cancer cell lines, NCI-H23, DU145, SW480, SKOV3, A549, HT29, SK-MES-1, SKBR3, HCT116, MCF7, N87, and A431 (ATCC designations).

[2] = tested on: N87; test: as above; conditions: 72 h
Protocol: as §1, §2

[3] = tested on: SW480; test: as above; conditions: Homo sapiens, 72 h
Protocol: as §1, §2

[4] = tested on: SK-MES-1; test: as above; conditions: Homo sapiens, 72 h; SK-MES-1, three days
Protocol: as §1, §2

[5] = tested on: HT29; test: as above; conditions: Homo sapiens, HT-29, 72 h
Protocol: as §1, §2

[6] = tested on: MCF7; test: as above; conditions: Homo sapiens, 72 h
Protocol: as §1, §2

[7] = tested on: SKBR3; test: as above; conditions: Homo sapiens, SK-BR-3, 72 h
Protocol: as §1, §2

[8] = tested on: DU145; test: as above; conditions: Homo sapiens, DU-145, 72 h
Protocol: as §1, §2

[9] = tested on: SKOV3; test: as above; conditions: Homo sapiens, SK-OV-3, 72 h
Protocol: as §1, §2

[10] = tested on: NCI-H23; test: as above; conditions: Homo sapiens, 72 h
Protocol: as §1, §2

[11] = tested on: HCT116; test: as above; conditions: Homo sapiens, HCT-116, 72 h
Protocol: as §1, §2

[12] = tested on: A431; test: as above; conditions: Homo sapiens, A-431, 72 h
Protocol: as §1, §2

[13] = tested on: PANC 10.05; test: In vitro cytotoxicity on pancreatic cancer cell line (Example 12); conditions: PANC 10.05 human pancreatic cancer cell line
[14] = tested on: K562; test: In vitro cytotoxicity of toxin compounds (Example 12, Table 4); conditions: Homo sapiens
Protocol: as §1
(§3) Table 4 gives the cytotoxicity data for Compounds 2, 4, and 6 on the indicated cancer cell lines, HL60, KG-1, NCI-H69, SK-MEL-1, HEL-92.1.7, and K562 (ATCC designations).

[15] = tested on: SK-MEL-1; test: as above; conditions: Homo sapiens
Protocol: as §1, §3

[16] = tested on: NCI-H69; test: as above; conditions: Homo sapiens
Protocol: as §1, §3

[17] = tested on: HL60; test: as above; conditions: Homo sapiens, HL-60
Protocol: as §1, §3

[18] = tested on: HEL-92.1.7; test: as above; conditions: Homo sapiens
Protocol: as §1, §3

[19] = tested on: PANC 05.04; test: In vitro cytotoxicity on pancreatic cancer cell line (Example 12); conditions: PANC 05.04 human pancreatic cancer cell line
[20] = tested on: HCT 116 cells; test: In vitro cytotoxicity, CellTiter-Glo, 72 h (Example 11)
Protocol: Alternatively, the in vitro cytotoxicity of the compounds of the invention may be measured as described in this example. 180 μl of HCT 116 cells (ATCC, Cat # CCL-247) in McCoy's 5a Medium Modified (Sigma-Aldrich®, St. Louis, Mo.)+10% fetal bovine serum were seeded at a density of 5,000 cells/well in a white opaque 96-well plate and incubated for 24 hours at […] in a 5% CO2 incubator. Twenty-four hours post cell seeding, 20 μl of 100× test compounds were diluted such that the final concentrations of the test compounds were in μM concentration. Half log dilutions were used, starting from 10 μM through 0.0001 μM. Puromycin and […]. The cells were incubated with the compounds for 72 hours at […] in a 5% CO2 incubator. After 72 hrs, 100 μl/well of CellTiter-Glo® Luminescent Cell Viability Assay reagent (Promega, Inc., Madison, Wis.; Cat. # G7573) was added to the plates and incubated at room temperature for 30 minutes. The luminescence signals were captured using EnVision 2105 Multimode Plate Reader (PerkinElmer, Waltham, Mass.). The data were analyzed using non-linear regression curve fit (sigmoidal dose response) in GraphPad Prism software (GraphPad Software, La Jolla, Calif.) by plotting the concentration of drug on the X-axis and the mean % inhibition values on the Y-axis.

| Structure (SMILES) | pIC50 [1] | pIC50 [2] | pIC50 [3] | pIC50 [4] | pIC50 [5] | pIC50 [6] | pIC50 [7] | pIC50 [8] | pIC50 [9] | pIC50 [10] | pIC50 [11] | pIC50 [12] | pIC50 ([13]; Panc1005) | pIC50 [14] | pIC50 [15] | pIC50 [16] | pIC50 [17] | pIC50 [19] | pIC50 ([20]; Homo sapiens, HCT-116, 72 h) | further results |
| --- | --- | --- | --- | --- | --- | --- | --- | --- | --- | --- | --- | --- | --- | --- | --- | --- | --- | --- | --- | --- |
| COC(=O)C[C@@H]1C[C@@]2(CO2)[C@H](O)[C@@H](/C=C/C(C)=C/C[C@@H]2O[C@H](C)[C@H](NC(=O)/C=C\C(C)OC(=O)c3ccc(F)cc3)C[C@@H]2C)O1 (stereo partly drawn) [Compound 2, (Z)-5-((2R, 3R, 5S, 6S)-6-((2E, 4E)-5-((3R, 4R, 5R, 7S)-4-hydroxy-7-(2-methoxy-2-oxoethyl)-1,6-dioxaspiro[2.5]octan-5-yl)-3-methylpenta-2,4-dienyl)-2,5-dimethyltetrahydro-2H-pyran-3-ylamino)-5-oxopent-3-en-2-yl 4-fluorobenzoate] | 7.42 | 7.83 | 7.69 | 6.95 | 7.65 | 7.49 | 6.78 | 7.56 | 7.24 | 8.89 | 8.05 | 8.04 | 7.68 | 9.24 | 8.49 | 9.02 | 10.10 | 8.70 | 8.15 | pIC50 [18]: 9.15 |
| COc1ccc(C[C@H](N)C(=O)N[C@H]2[C@@H](O)[C@H](n3cnc4c(N(C)C)ncnc43)O[C@@H]2CO)cc1 [Puromycin, reference compound] |  |  |  |  |  |  |  |  |  |  |  |  |  |  |  |  |  |  |  | pIC50 ([20]; Homo sapiens, HCT 116 cells, 72 hours, read-out: IC50): ~6.60 |
| COC(=O)C[C@@H]1C[C@@]2(CO2)[C@H](O)[C@@H](/C=C/C(C)=C/C[C@@H]2O[C@H](C)[C@H](NC(=O)/C=C\C(C)OC(=O)c3ccccc3)C[C@@H]2C)O1 (stereo partly drawn) [Compound 1, (Z)-5-((2R, 3R, 5S, 6S)-6-((2E, 4E)-5-((3R, 4R, 5R, 7S)-4-hydroxy-7-(2-methoxy-2-oxoethyl)-1,6-dioxaspiro[2.5]octan-5-yl)-3-methylpenta-2,4-dienyl)-2,5-dimethyltetrahydro-2H-pyran-3-ylamino)-5-oxopent-3-en-2-yl benzoate] |  |  |  |  |  |  |  |  |  |  |  |  | 7.19 |  |  |  |  | 7.66 | 7.72 |  |
| COC(=O)C[C@@H]1C[C@@]2(CO2)[C@H](O)[C@@H](/C=C/C(C)=C/C[C@@H]2O[C@H](C)[C@H](NC(=O)/C=C\C(C)c3ccon3)C[C@@H]2C)O1 (stereo partly drawn) [Compound 4, Methyl 2-((3R, 5S, 7R, 8R)-8-hydroxy-7-((1E, 3E)-5-((2S,3S,5R,6R)-5-((Z)-4-(isoxazol-3-yl)pent-2-enamido)-3,6-dimethyltetrahydro-2H-pyran-2-yl)-3-methylpenta-1,3-dien-1-yl)-1,6-dioxaspiro[2.5]octan-5-yl)acetate] | 8.55 | 8.80 | 8.66 | 8.12 | 8.89 | 8.68 | 8.02 | 8.72 | 8.17 | 9.70 | 9.00 | 9.15 | 8.14 | 9.96 | 9.38 | 9.20 | 10.30 | 8.40 | 6.48 |  |
| COC(=O)C[C@@H]1C[C@@]2(CO2)[C@H](O)[C@@H](/C=C/C(C)=C/C[C@@H]2O[C@H](C)[C@H](NC(=O)/C=C\C(C)c3noc(C)n3)C[C@@H]2C)O1 (stereo partly drawn) [Compound 6, Methyl 2-((3R, 5S, 7R, 8R)-7-((1E, 3E)-5-((2S, 3S, 5R, 6R)-3,6-dimethyl-5-((Z)-4-(5-methyl-1,2,4-oxadiazol-3-yl)pent-2-enamido)tetrahydro-2H-pyran-2-yl)-3-methylpenta-1,3-dienyl)-8-hydroxy-1,6-dioxaspiro[2.5]octan-5-yl)acetate] | 8.32 | 8.85 | 8.57 | 8.03 | 8.57 | 8.42 | 7.91 | 8.48 | 8.01 | 9.40 | 8.70 | 8.74 | 7.99 | 10.05 | 9.11 | 9.68 | 10.40 | 8.15 | 7.70 | pIC50 [18]: 10.52 |
| COC(=O)C[C@@H]1C[C@@]2(CO2)[C@H](O)[C@@H](/C=C/C(C)=C/C[C@@H]2O[C@H](C)[C@H](NC(=O)/C=C\C(C)n3nc(C)nc3C)C[C@@H]2C)O1 (stereo partly drawn) [Compound 3, Methyl 2-((3R, 5S, 7R, 8R)-7-((1E, 3E)-5-((2S, 3S, 5R, 6R)-5-((Z)-4-(3,5-dimethyl-1H-1,2,4-triazol-1-yl)pent-2-enamido)-3,6-dimethyltetrahydro-2H-pyran-2-yl)-3-methylpenta-1,3-dienyl)-8-hydroxy-1,6-dioxaspiro[2.5]octan-5-yl)acetate] |  |  |  |  |  |  |  |  |  |  |  |  | < 5.70 |  |  |  |  | 6.36 | 6.41 |  |
| COC(=O)C[C@@H]1C[C@@]2(CO2)[C@H](O)[C@@H](/C=C/C(C)=C/C[C@@H]2O[C@H](C)[C@H](NC(=O)/C=C\C(C)c3cc(OC)no3)C[C@@H]2C)O1 (stereo partly drawn) [Compound 5, Methyl 2-((3R, 5S, 7R, 8R)-8-hydroxy-7-((1E, 3E)-5-((2S, 3S, 5R, 6R)-5-((Z)-4-(3-methoxyisoxazol-5-yl)pent-2-enamido)-3,6-dimethyltetrahydro-2H-pyran-2-yl)-3-methylpenta-1,3-dienyl)-1,6-dioxaspiro[2.5]octan-5-yl)acetate] |  |  |  |  |  |  |  |  |  |  |  |  |  |  |  |  |  | 7.92 |  | pIC50 [13]: 7.70; pIC50 ([20]; HCT 116 cells, 72 hours, read-out: IC50): 6.51 |
| COC(=O)C[C@@H]1C[C@@]2(CO2)[C@H](O)[C@@H](/C=C/C(C)=C/C[C@@H]2O[C@H](C)[C@H](NC(=O)/C=C\C(C)COC3(C)COC3)C[C@@H]2C)O1 (stereo partly drawn) [Compound 7, Methyl 2-((3R, 5S, 7R, 8R)-7-((1E, 3E)-5-((2S, 3S, 5R, 6R)-3,6-dimethyl-5-((Z)-4-methyl-5-((3-methyloxetan-3-yl)oxy)pent-2-enamido)tetrahydro-2H-pyran-2-yl)-3-methylpenta-1,3-dien-1-yl)-8-hydroxy-1,6-dioxaspiro[2.5]octan-5-yl)acetate] |  |  |  |  |  |  |  |  |  |  |  |  | 7.01 |  |  |  |  | 7.66 | 6.52 |  |
